Measured values as given in patent US20240002372A1, “ANTICHOLINERGIC AGENTS” (REZUBIO PHARMACEUTICALS CO., LTD, priority 2020, published 2024).
Where a name gives a salt, the structure may show the parent alone.

These compounds were tested against M3 receptor (Homo sapiens (Human), UniProt P20309) (assay: FLIPR calcium flux assay, antagonist mode, CHO-K1 cells stably expressing M3 receptor). Details: inhibition of acetylcholine-induced calcium flux (8 nM acetylcholine, EC80).
Type: cell-based
Method: FLIPR assay was used to evaluate the potency of compounds. CHO-K1 cells stably expressing M3 receptor were cultured at 37° C. in the culture media (90% Ham's F-12 Nutrient Mixture, Gibco; 10% fetal bovine serum, Biosera; 200 μg/mL Hygromycin, and Penicillin (100 U/mL)/Streptomycin (100 μg/mL), Invitrogen) till 100% confluency in cell culture incubator (ThermoFisher, 5% CO2). Cells were harvested by using 0.25% Trypsin/EDTA, spun down at 300×g for 5 min, and resuspended in the culture media at cell density of 5×10^5 cells/mL. Twenty microliter of cell suspension (10,000 cells/well) was transferred to 384-well plate and cultured for 24 hr before assay. DMSO was used as blank control and scopolamine (MedChemExpress) as a positive control for antagonist. Compounds were prepared in DMSO (stock concentration: 1 mM) and 3×serially diluted (10 concentrations) in 384-LDV plate (Labcyte). Ninety nL of serially diluted compounds were transferred from 384-LDV plate into compound plate (PerkinElmer) by Echo 550 (Labcyte), and 30 uL assay buffer (1×HBSS with 20 mM HEPES, pH 7.4, Sigma) were added to each well. For FLIPR assay, culture media was removed and 20 uL of 1× loading dye (Assay buffer with 2 μM Fluo-8 AM, AAT Bioquest; 1 mM Probenecid and 0.0025% pluronic F-127, Sigma) was added to each well. The plate was incubated at 37° C. for 1 hr (avoid light exposure). For FLIPR assay, Excitation wavelength was set at 470/495 nm and Emission wavelength was set at 515/575 nm (Molecular Devices). Assay was performed in both agonist and antagonist modes. For agonist mode, 10 μL of diluted compounds were transferred to cell culture well and incubated at room temperature for 10 min. For antagonist mode, 10 μL diluted compounds with 8 nM acetylcholine (EC80, MedChemExpress) was added to each well, incubated at room temperature for 10 min. RFU value was calculated by subtracting minimum from maximum of FLIPR signal. Inhibitory effect of compounds on acetylcholine-induced calcium flux was calculated by % Effect=(RFUsample−RFUDMSO)/(RFUScopolamine−RFUDMSO)×100. Dose response curve fitting and IC50 value of each compound was calculated by using XLFit. The following table lists the IC50 where * means IC50>1000 nM; ** 10-100 nM; ***<10 nM.

M3 receptor, sequence (P20309 whole entry): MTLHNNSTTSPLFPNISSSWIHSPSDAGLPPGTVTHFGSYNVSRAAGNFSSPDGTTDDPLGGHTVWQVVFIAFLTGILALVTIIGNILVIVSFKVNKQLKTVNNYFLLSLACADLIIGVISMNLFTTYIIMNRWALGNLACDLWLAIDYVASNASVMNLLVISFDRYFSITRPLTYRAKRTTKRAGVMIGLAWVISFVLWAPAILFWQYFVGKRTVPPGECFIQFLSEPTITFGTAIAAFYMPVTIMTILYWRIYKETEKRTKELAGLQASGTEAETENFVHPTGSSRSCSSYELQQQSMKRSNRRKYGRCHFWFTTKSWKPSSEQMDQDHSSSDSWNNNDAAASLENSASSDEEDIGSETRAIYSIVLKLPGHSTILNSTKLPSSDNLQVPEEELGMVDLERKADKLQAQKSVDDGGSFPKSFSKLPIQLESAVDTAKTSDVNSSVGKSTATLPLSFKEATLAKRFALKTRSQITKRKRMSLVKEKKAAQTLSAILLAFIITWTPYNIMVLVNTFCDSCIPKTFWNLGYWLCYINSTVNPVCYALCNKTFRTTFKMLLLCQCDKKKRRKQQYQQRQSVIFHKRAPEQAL

SMILES	IC50 [µM]
C[N+]1(C)CC[C@@H](OC(=O)C(O)c2ccccc2C2=CCCC2)C1 (single isomer, unassigned) [Example 2, trifluoroacetate]	< 0.01
C[N+]1(C)CC[C@@H](OC(=O)C(O)c2ccccc2C2=CCCC2)C1 (single isomer, unassigned) [Example 3, trifluoroacetate]	0.01 to 0.1
C[N+]1(C)CC[C@H](OC(=O)C(O)c2ccccc2C2=CCCC2)C1 (single isomer, unassigned) [Example 4, trifluoroacetate]	0.01 to 0.1
C[N+]1(C)CC[C@H](OC(=O)C(O)c2ccccc2C2=CCCC2)C1 (single isomer, unassigned) [Example 5, trifluoroacetate]	0.01 to 0.1
C[N+]1(C)CCC[C@@H]1COC(=O)C(O)c1ccccc1C1=CCCC1 (single isomer, unassigned) [Example 6, trifluoroacetate]	< 0.01
C[N+]1(C)CCC[C@H]1COC(=O)C(O)c1ccccc1C1=CCCC1 (single isomer, unassigned) [Example 8, trifluoroacetate]	0.01 to 0.1
C[N+]1(C)CCC[C@H]1COC(=O)C(O)c1ccccc1C1=CCCC1 (single isomer, unassigned) [Example 9, trifluoroacetate]	< 0.01
C[N+]1(C)CC[C@@H](OC(=O)C(O)c2ccccc2-c2ncco2)C1 (stereo partly drawn) [Example 1, (3R)-3-(2-hydroxy-2-(2-(oxazol-2-yl)phenyl)acetoxy)-1,1-dimethylpyrrolidin-1-ium trifluoroacetate]	0.01 to 0.1
C[N+]1(C)CCC[C@@H]1COC(=O)C(O)c1ccccc1C1=CCCC1 (stereo partly drawn) [Example 7, (R)-2-((2-(2-(cyclopent-1-en-1-yl)phenyl)-2-hydroxyacetoxy)methyl)-1,1-dimethylpyrrolidin-1-ium trifluoroacetate]	0.01 to 0.1
C[N+]1(C)CCC(OC(=O)C(O)c2ccccc2C2CCCC2)C1 (stereo not drawn) [Example 10, 3-[2-(2-Cyclopentyl-phenyl)-2-hydroxy-acetoxy]-1,1-dimethyl-pyrrolidinium chloride]	0.01 to 0.1
C[N+]1(C)CCC(OC(=O)C(O)c2ccccc2-c2ccccc2)C1 (stereo not drawn) [Example 11, 3-(2-([1,1′-biphenyl]-2-yl)-2-hydroxyacetoxy)-1,1-dimethylpyrrolidin-1-ium chloride]	0.01 to 0.1
CC(C)c1ccccc1C(O)C(=O)OC1CC[N+](C)(C)C1 (stereo not drawn) [Example 12, 3-(2-hydroxy-2-(2-isopropylphenyl)acetoxy)-1,1-dimethylpyrrolidin-1-ium chloride]	> 1
